Experimental data from patent US8242083B2, “Kinase substrates” (PerkinElmer Health Sciences, Inc., priority 2008, dated 2012).

System: 83 tyrosine kinases
Test: Panel of 83 TR-FRET tyrosine kinase assays
Format: biochemical
Conditions: 83 tyrosine kinases tested; conditions of Example 1
Description: TR-FRET kinase assays are performed under standardized conditions: various individual kinases are incubated with 50 nM of kinase substrate BRB1 labeled with the TR-FRET acceptor dye ULight (PerkinElmer) and 200 micromolar ATP in 10 μL of kinase assay buffer (50 mM HEPES pH7.5, 10 mM MgCl2, 3 mM MnCl2, 1 mM EGTA, 2 mM DTT and 0.01% Tween-20) for 2 hours at room temperature. Reactions are stopped with EDTA, and anti-phospho-tyrosine antibodies (clone PT66) labeled with the TR-FRET europium chelate donor dye are added to a final concentration of 2 nM in a final volume of 20 μL. The TR-FRET signal emitted at 665 nm is read one hour after the addition of antibodies using a TR-FRET plate reader such as the Envision® Multilabel Plate reader (PerkinElmer). The emitted signal at 665 nm is proportional to the extent of peptide phosphorylation, Control reactions indicative of background are performed excluding ATP from the reaction.
Assay conditions are identical to those used described for FIG. 1.
The BRB2 peptide is tested with 83 tyrosine kinases in assay conditions identical to those used for BRB1 in Example 1. Data obtained with BRB2 indicate that the peptide is phosphorylated by 65 kinases out of 83 (78%), with signal to noise ratio of >3.

“CGG E AYE AYE AYE AYA EYE ARR (CGGEAYEAYEAYEAYAEYEARR; tyrosine kinase substrate peptide) [BRB2]” was tested, and the “Number of kinases out of 83 that phosphorylated the peptide with signal to noise ratio of >3” value was 65 and the “Percentage of 83 kinases that phosphorylated the peptide with signal to noise ratio of >3” value was 78%.
